Results taken from ChEMBL document CHEMBL5316339, “Discovery of a Series of Substituted 1H-((1,2,3-Triazol-4-yl)methoxy)pyrimidines as Brain Penetrants and Potent GluN2B-Selective Negative Allosteric Modulators” (J Med Chem, 2023).
Values after ≈ are worked out from the molar mass of the structure shown.

Key:
[1] = system: MDR1 (P-gp); test: Efflux ratio of apparent permeability from basolateral to apical side over apical to basolateral side in MDCK-MDR1 cells at 5 uM incubated for 60 mins by LC-MS/MS analysis; format: ADME, cell-based, Canis lupus familiaris; details: dog
[2] = molecular target: Glutamate receptor ionotropic, NMDA 2B (Rattus norvegicus, UniProt Q00960); test: Displacement of 3-(3H) 1-(azetidin-1-yl)-2-(6- (4-fluoro-3-methyl-phenyl)pyrrolo-[…] pyridin-1yl)ethanone from GluN2B receptor in rat cortical membrane assessed as inhibition constant incubated for 2 hrs under shaking condition by liquid scintillator counter analysis; format: cell membranes, Cortex
Sequence of Glutamate receptor ionotropic, NMDA 2B (Q00960 whole entry): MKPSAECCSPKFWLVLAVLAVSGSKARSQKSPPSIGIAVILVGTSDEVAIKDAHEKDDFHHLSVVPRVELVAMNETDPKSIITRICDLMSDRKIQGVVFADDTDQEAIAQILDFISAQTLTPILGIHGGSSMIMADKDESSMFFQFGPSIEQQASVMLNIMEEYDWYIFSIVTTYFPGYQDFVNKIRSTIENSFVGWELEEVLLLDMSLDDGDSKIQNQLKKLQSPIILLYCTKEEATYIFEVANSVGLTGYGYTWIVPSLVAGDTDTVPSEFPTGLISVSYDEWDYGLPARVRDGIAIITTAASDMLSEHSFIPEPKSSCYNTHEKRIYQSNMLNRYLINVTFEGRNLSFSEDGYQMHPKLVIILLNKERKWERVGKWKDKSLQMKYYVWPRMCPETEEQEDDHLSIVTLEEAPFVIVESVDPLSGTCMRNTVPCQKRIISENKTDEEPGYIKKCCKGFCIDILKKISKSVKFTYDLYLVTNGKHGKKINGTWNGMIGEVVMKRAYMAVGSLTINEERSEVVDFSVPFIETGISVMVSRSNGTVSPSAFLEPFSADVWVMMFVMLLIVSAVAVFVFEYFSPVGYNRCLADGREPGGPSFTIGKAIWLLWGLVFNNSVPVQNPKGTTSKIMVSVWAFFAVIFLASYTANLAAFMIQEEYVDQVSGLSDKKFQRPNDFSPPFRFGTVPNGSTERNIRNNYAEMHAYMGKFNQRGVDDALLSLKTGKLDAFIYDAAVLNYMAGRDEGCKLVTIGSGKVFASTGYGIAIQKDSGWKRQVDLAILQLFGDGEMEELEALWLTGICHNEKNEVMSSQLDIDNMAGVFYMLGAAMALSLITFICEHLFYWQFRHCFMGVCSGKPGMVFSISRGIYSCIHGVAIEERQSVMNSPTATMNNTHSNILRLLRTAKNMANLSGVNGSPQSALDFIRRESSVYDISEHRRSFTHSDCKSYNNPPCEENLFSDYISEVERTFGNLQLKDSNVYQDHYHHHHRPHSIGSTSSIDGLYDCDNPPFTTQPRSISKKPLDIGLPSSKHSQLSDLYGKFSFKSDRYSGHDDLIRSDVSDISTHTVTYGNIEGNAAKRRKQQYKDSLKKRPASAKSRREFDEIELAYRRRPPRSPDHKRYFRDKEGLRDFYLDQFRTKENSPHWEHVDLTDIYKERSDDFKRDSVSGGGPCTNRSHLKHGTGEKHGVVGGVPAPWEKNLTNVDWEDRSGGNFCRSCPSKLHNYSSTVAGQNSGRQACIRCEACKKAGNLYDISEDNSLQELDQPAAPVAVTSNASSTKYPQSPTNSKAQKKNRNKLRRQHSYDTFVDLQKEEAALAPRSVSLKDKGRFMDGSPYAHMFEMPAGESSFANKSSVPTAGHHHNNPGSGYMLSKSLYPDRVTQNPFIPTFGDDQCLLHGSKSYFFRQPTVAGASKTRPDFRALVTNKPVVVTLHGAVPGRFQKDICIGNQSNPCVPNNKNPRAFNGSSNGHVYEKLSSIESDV

[3] = molecular target: Voltage-gated inwardly rectifying potassium channel KCNH2 (Homo sapiens, UniProt Q12809); test: Displacement of [3H]dofetilide from human ERG expressed in HEK293 cells; format: toxicity, cell-based
Sequence of Voltage-gated inwardly rectifying potassium channel KCNH2 (Q12809 whole entry): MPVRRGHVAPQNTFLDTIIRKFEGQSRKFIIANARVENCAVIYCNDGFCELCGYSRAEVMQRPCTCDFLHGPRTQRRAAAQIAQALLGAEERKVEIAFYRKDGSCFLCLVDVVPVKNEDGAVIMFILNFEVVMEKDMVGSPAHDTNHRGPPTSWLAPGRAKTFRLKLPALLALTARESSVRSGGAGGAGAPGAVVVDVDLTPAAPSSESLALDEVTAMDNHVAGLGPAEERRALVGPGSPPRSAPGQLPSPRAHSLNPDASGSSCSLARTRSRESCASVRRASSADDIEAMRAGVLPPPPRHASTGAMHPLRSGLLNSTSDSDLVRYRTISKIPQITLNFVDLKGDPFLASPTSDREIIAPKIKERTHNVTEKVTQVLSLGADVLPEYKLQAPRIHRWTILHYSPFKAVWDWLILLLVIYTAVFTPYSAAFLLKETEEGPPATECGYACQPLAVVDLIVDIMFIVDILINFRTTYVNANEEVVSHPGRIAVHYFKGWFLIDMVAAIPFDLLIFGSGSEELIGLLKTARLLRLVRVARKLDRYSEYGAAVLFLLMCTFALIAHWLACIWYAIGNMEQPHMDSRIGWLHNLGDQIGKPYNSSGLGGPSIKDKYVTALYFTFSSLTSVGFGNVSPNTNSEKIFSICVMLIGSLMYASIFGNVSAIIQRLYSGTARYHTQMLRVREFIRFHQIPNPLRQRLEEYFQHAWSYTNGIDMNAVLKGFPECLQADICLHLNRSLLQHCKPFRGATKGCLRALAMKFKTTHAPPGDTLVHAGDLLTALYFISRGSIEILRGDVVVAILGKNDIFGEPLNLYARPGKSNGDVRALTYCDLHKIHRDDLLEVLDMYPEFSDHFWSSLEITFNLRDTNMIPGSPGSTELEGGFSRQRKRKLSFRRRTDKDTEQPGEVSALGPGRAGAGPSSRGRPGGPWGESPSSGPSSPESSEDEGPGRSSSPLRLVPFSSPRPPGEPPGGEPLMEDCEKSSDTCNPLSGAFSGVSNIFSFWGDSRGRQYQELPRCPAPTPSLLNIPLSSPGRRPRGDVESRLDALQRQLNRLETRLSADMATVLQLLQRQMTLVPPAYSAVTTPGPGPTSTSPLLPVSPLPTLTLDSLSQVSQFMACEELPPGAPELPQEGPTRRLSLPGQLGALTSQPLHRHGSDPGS

[4] = Drug metabolism in human liver microsomes assessed as acid metabolite 2-((1-(3-(difluoromethoxy)-4-fluorophenyl)-1H-1,2,3-triazol-4-yl)methoxy)pyrimidine-5-carboxylic acid formation; format: ADME, Microsome
[5] = Drug metabolism in human liver microsomes assessed as O-dearylation mediated metabolite formation; format: ADME, Microsome
[6] = Solubility in aqueous buffer at pH 2; format: physicochemical
[7] = Drug metabolism in rat liver microsomes assessed as hydroxylated metabolite (2-((1-(3-(difluoromethoxy)-4-fluorophenyl)-1H-1,2,3-triazol-4-yl)methoxy)pyrimidin-5-yl)methanol formation; format: ADME, Microsome
[8] = Metabolic stability in rat liver microsomes assessed as extraction ratio; format: ADME, Microsome; details: read-out: ERH
[9] = molecular target: Glutamate NMDA receptor; GRIN1/GRIN2B (Homo sapiens, UniProt Q05586+Q13224); test: Negative allosteric modulation of human GluN1A/GluN2B receptor expressed in T-REX-CHO cells preincubated for 5 mins followed by glutamate and glycine addition and measured after 5 mins by FLIPR assay; format: cell-based
Sequence of Glutamate NMDA receptor; GRIN1/GRIN2B (Q13224 whole entry, other chains not shown): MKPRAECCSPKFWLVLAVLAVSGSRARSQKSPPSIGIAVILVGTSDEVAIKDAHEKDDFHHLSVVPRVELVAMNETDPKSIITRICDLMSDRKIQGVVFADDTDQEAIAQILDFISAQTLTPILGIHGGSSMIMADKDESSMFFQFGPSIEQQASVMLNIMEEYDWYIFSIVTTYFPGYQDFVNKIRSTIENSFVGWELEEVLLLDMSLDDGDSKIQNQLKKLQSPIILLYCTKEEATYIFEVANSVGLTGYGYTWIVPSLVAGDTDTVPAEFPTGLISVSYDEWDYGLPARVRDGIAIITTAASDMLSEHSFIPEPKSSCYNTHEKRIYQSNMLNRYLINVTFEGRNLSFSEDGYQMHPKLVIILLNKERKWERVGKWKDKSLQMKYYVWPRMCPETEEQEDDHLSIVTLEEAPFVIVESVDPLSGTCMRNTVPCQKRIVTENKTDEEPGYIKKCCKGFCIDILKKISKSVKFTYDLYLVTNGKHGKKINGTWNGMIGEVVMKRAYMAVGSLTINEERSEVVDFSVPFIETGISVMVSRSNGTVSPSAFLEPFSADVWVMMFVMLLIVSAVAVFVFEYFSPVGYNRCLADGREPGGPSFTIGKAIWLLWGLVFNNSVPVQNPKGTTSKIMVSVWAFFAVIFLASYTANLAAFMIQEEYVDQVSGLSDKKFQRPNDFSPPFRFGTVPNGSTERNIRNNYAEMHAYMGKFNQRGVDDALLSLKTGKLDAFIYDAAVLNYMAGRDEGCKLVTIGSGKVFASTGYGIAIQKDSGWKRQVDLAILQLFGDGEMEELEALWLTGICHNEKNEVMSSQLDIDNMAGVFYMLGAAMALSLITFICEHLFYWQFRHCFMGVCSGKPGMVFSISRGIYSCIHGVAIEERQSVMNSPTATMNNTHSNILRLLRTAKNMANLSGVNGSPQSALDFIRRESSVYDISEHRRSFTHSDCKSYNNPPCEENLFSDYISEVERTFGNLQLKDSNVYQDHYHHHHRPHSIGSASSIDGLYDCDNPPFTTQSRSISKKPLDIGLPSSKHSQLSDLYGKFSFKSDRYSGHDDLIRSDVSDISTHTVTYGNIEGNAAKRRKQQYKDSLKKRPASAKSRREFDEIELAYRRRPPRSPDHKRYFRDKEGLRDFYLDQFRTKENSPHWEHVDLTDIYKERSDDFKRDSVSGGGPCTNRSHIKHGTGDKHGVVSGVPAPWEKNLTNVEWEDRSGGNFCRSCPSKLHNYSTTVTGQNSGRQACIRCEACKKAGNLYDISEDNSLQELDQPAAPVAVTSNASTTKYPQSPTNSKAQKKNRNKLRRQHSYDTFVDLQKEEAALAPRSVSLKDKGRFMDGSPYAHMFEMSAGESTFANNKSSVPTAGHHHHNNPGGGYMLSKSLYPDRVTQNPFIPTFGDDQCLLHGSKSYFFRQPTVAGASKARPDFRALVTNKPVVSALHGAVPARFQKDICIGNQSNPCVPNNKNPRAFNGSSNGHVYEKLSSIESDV

[10] = Solubility in aqueous buffer at pH 7; format: physicochemical
[11] = Metabolic stability in human liver microsomes assessed as extraction ratio; format: ADME, Microsome; details: read-out: ERH
[12] = Drug metabolism in rat liver microsomes assessed as O-dearylation mediated metabolite formation; format: ADME, Microsome
[13] = system: Hippocampus; test: Ex vivo receptor occupancy at GluN2B receptor in Sprague-Dawley rat hippocampus administered orally and measured after 2 hrs by 3-[3H] 1-(azetidin- 1-yl-2[6-(4-fluoro-3-methyl-pheny)pyrrolo[3,2-b]pyridin-1-yl]ethanon based autoradiography; format: functional; details: route po
[14] = Drug metabolism in human liver microsomes assessed as hydroxylated metabolite (2-((1-(3-(difluoromethoxy)-4-fluorophenyl)-1H-1,2,3-triazol-4-yl)methoxy)pyrimidin-5-yl)methanol formation; format: ADME, Microsome
[15] = Drug metabolism in rat liver microsomes assessed as acid metabolite 2-((1-(3-(difluoromethoxy)-4-fluorophenyl)-1H-1,2,3-triazol-4-yl)methoxy)pyrimidine-5-carboxylic acid formation; format: ADME, Microsome

Question: For `Cc1cnc(OCc2cn(-c3ccc(F)c(OC(F)F)c3)nn2)nc1`, which efflux ratio at 1 h, 5 µM [1] is on record?
Answer: The efflux ratio at 1 h, 5 µM was 0.8.

Question: And the Ki [2]?
Answer: Its Ki is 8.9 nM.

Question: And the IC50 [3]?
Answer: The IC50 was over 10000 nM.

Question: What about the Drug metabolism [4] of the same molecule?
Answer: Its Drug metabolism is “Metabolite_Detected”.

Question: And the Drug metabolism [5]?
Answer: The Drug metabolism was “Metabolite_Notdetected”.

Question: What about the solubility [6] of the same molecule?
Answer: Its solubility is 7.6 µM (≈ 2.67 µg/mL).

Question: What about the Drug metabolism [7] of the same molecule?
Answer: Its Drug metabolism is “Metabolite_Detected”.

Question: And the hepatic extraction ratio [8]?
Answer: The hepatic extraction ratio was 0.37.

Question: And the IC50 [9]?
Answer: The IC50 was 3.5 nM.

Question: And the solubility [10]?
Answer: The solubility was 7.6 µM (≈ 2.67 µg/mL).

Question: And the hepatic extraction ratio [11]?
Answer: The hepatic extraction ratio was 0.57.

Question: And the Drug metabolism [12]?
Answer: The Drug metabolism was “Metabolite_Notdetected”.

Question: And the ED50 [13]?
Answer: The ED50 was 1.7 mg/kg.

Question: And the Drug metabolism [14]?
Answer: The Drug metabolism was “Metabolite_Detected”.

Question: And the Drug metabolism [15]?
Answer: Its Drug metabolism is “Metabolite_Detected”.
